Patent publication US10633379B2, “Bromodomain inhibitors” (AbbVie Inc., priority 2016, dated 2020)

Legend:
[1] = biological target: BRD4 (BDI_K57-E168) (Homo sapiens (Human), UniProt O60885); assay: TR-FRET bromodomain binding assay, BRD4 BDI; conditions: mean Ki, calculated from IC50, probe Kd and probe concentration
Method in brief: (§1)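 His-tagged BRD4 BDI (12 nM, with 100 nM Alexa647 BET-inhibitor probe) or BDII (4 nM, 30 nM probe), plus 1 nM Eu-anti-His antibody, in pH 6.0 phosphate buffer with 2% DMSO. Equilibrated 1 h at room temperature and read by TR-FRET. IC50 from a 4-parameter fit was converted to Ki using probe Kd and probe concentration.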

[2] = biological target: BRD4 (BDII_E352-M457) (Homo sapiens (Human), UniProt O60885); assay: TR-FRET bromodomain binding assay, BRD4 BDII; conditions: mean Ki, calculated from IC50, probe Kd and probe concentration
Method in brief: as §1

Row | SMILES | Ki [1] [nM] | Ki [2] [nM]
1 | CCNC(=O)c1cc2c(-c3cc(C(C)(C)O)cnc3-c3ccc(F)cc3F)cn(C)c(=O)c2[nH]1 [Example 89, 4-[2-(2,4-difluorophenyl)-5-(2-hydroxypropan-2-yl)pyridin-3-yl]-N-ethyl-6-methyl-7-oxo-6,7-dihydro-1H-pyrrolo[2,3-c]pyridine-2-carboxamide] | 281 | 1.7
2 | CCNC(=O)c1cc2c(-c3cc(C(C)(C)O)cnc3Oc3c(C)ccc(F)c3C)cn(C)c(=O)c2[nH]1 [Example 91, N-ethyl-4-[2-(3-fluoro-2,6-dimethylphenoxy)-5-(2-hydroxypropan-2-yl)pyridin-3-yl]-6-methyl-7-oxo-6,7-dihydro-1H-pyrrolo[2,3-c]pyridine-2-carboxamide] | 271 | 1.6
3 | CCNC(=O)c1cc2c(-c3cc(C(C)(C)O)cnc3Oc3c(C)cc(Cl)cc3C)cn(C)c(=O)c2[nH]1 [Example 94, 4-[2-(4-chloro-2,6-dimethylphenoxy)-5-(2-hydroxypropan-2-yl)pyridin-3-yl]-N-ethyl-6-methyl-7-oxo-6,7-dihydro-1H-pyrrolo[2,3-c]pyridine-2-carboxamide] | 236 | 3.7
4 | CCNC(=O)c1cc2c(-c3nc(C(C)(C)O)ccc3Oc3c(C)cc(F)cc3C)cn(C)c(=O)c2[nH]1 [Example 96, N-ethyl-4-[3-(4-fluoro-2,6-dimethylphenoxy)-6-(2-hydroxypropan-2-yl)pyridin-2-yl]-6-methyl-7-oxo-6,7-dihydro-1H-pyrrolo[2,3-c]pyridine-2-carboxamide] | 801 | 9.1
5 | CCNC(=O)c1cc2c(-c3cc(C(C)(C)O)ccc3Oc3c(C)cc(F)cc3C(F)F)cn(C)c(=O)c2[nH]1 [Example 98, 4-{2-[2-(difluoromethyl)-4-fluoro-6-methylphenoxy]-5-(2-hydroxypropan-2-yl)phenyl}-N-ethyl-6-methyl-7-oxo-6,7-dihydro-1H-pyrrolo[2,3-c]pyridine-2-carboxamide] | 682 | 9.6
6 | Cn1cc(-c2cc(C(C)(C)O)cnc2Oc2c(Cl)cc(F)cc2Cl)c2cc(C(=O)NC(C)(C)C)[nH]c2c1=O [Example 100, N-tert-butyl-4-[2-(2,6-dichloro-4-fluorophenoxy)-5-(2-hydroxypropan-2-yl)pyridin-3-yl]-6-methyl-7-oxo-6,7-dihydro-1H-pyrrolo[2,3-c]pyridine-2-carboxamide] | 115 | 5.6
7 | CCNC(=O)c1cc2c(-c3cc(C(C)(C)O)cnc3Oc3c(Cl)cc(F)cc3Cl)cn(C)c(=O)c2[nH]1 [Example 101, 4-[2-(2,6-dichloro-4-fluorophenoxy)-5-(2-hydroxypropan-2-yl)pyridin-3-yl]-N-ethyl-6-methyl-7-oxo-6,7-dihydro-1H-pyrrolo[2,3-c]pyridine-2-carboxamide] | 110 | 2.5
8 | CCNC(=O)c1cc2c(-c3cc(C(C)(O)CF)cnc3Oc3c(C)cc(Cl)cc3C)cn(C)c(=O)c2[nH]1 (stereo not drawn) [Example 102, 4-[2-(4-chloro-2,6-dimethylphenoxy)-5-(1-fluoro-2-hydroxypropan-2-yl)pyridin-3-yl]-N-ethyl-6-methyl-7-oxo-6,7-dihydro-1H-pyrrolo[2,3-c]pyridine-2-carboxamide] | 309 | 2.5

The next lines start with the values.

Row | Ki [1] [nM] | Ki [2] [nM] | SMILES
9 | 416 | 1.4 | CCNC(=O)c1cc2c(-c3cc(C(C)(O)C(F)(F)F)ccc3Oc3c(C)cc(F)cc3C)cn(C)c(=O)c2[nH]1 (stereo not drawn) [Example 86, N-ethyl-4-[2-(4-fluoro-2,6-dimethylphenoxy)-5-(1,1,1-trifluoro-2-hydroxypropan-2-yl)phenyl]-6-methyl-7-oxo-6,7-dihydro-1H-pyrrolo[2,3-c]pyridine-2-carboxamide]
10 | 501 | 2.8 | Cc1cc(F)cc(C)c1Oc1ccc(C(C)(O)CF)cc1-c1cn(C)c(=O)c2[nH]c(C(=O)NC(C)(C)C)cc12 (stereo not drawn) [Example 87, N-tert-butyl-4-[2-(4-fluoro-2,6-dimethylphenoxy)-5-(1-fluoro-2-hydroxypropan-2-yl)phenyl]-6-methyl-7-oxo-6,7-dihydro-1H-pyrrolo[2,3-c]pyridine-2-carboxamide]
11 | 389 | 1.1 | CCNC(=O)c1cc2c(-c3cc(C(C)(O)CF)ccc3Oc3c(C)cc(Cl)cc3C)cn(C)c(=O)c2[nH]1 (stereo not drawn) [Example 88, 4-[2-(4-chloro-2,6-dimethylphenoxy)-5-(1-fluoro-2-hydroxypropan-2-yl)phenyl]-N-ethyl-6-methyl-7-oxo-6,7-dihydro-1H-pyrrolo[2,3-c]pyridine-2-carboxamide]
12 | 158 | 2 | Cc1cc(S(C)(=O)=O)cc(C)c1Oc1ccc(C(C)(C)O)cc1-c1cn(C)c(=O)c2[nH]c(C(=O)NC(C)(C)C)cc12 [Example 90, N-tert-butyl-4-{5-(2-hydroxypropan-2-yl)-2-[4-(methanesulfonyl)-2,6-dimethylphenoxy]phenyl}-6-methyl-7-oxo-6,7-dihydro-1H-pyrrolo[2,3-c]pyridine-2-carboxamide]
13 | 410 | 12.1 | Cc1cc(S(C)(=O)=O)cc(C)c1Oc1ncc(C(C)(C)O)cc1-c1cn(C)c(=O)c2[nH]c(C(=O)NC(C)(C)C)cc12 [Example 92, N-tert-butyl-4-{5-(2-hydroxypropan-2-yl)-2-[4-(methanesulfonyl)-2,6-dimethylphenoxy]pyridin-3-yl}-6-methyl-7-oxo-6,7-dihydro-1H-pyrrolo[2,3-c]pyridine-2-carboxamide]
14 | 502 | 10.9 | CCNC(=O)c1cc2c(-c3cc(C(C)(C)O)cnc3Oc3c(C)cc(S(C)(=O)=O)cc3C)cn(C)c(=O)c2[nH]1 [Example 93, N-ethyl-4-{5-(2-hydroxypropan-2-yl)-2-[4-(methanesulfonyl)-2,6-dimethylphenoxy]pyridin-3-yl}-6-methyl-7-oxo-6,7-dihydro-1H-pyrrolo[2,3-c]pyridine-2-carboxamide]
15 | 333 | 4.8 | Cc1cc(Cl)cc(C)c1Oc1ncc(C(C)(C)O)cc1-c1cn(C)c(=O)c2[nH]c(C(=O)NC(C)(C)C)cc12 [Example 95, N-tert-butyl-4-[2-(4-chloro-2,6-dimethylphenoxy)-5-(2-hydroxypropan-2-yl)pyridin-3-yl]-6-methyl-7-oxo-6,7-dihydro-1H-pyrrolo[2,3-c]pyridine-2-carboxamide]
16 | 657 | 24.7 | Cc1cc(F)cc(C)c1Oc1ccc(C(C)(C)O)nc1-c1cn(C)c(=O)c2[nH]c(C(=O)NC(C)(C)C)cc12 [Example 97, N-tert-butyl-4-[3-(4-fluoro-2,6-dimethylphenoxy)-6-(2-hydroxypropan-2-yl)pyridin-2-yl]-6-methyl-7-oxo-6,7-dihydro-1H-pyrrolo[2,3-c]pyridine-2-carboxamide]
17 | 431 | 1.8 | CCNC(=O)c1cc2c(-c3cc(C(C)(C)O)ccc3Oc3c(C)ccc(Cl)c3C)cn(C)c(=O)c2[nH]1 [Example 99, 4-[2-(3-chloro-2,6-dimethylphenoxy)-5-(2-hydroxypropan-2-yl)phenyl]-N-ethyl-6-methyl-7-oxo-6,7-dihydro-1H-pyrrolo[2,3-c]pyridine-2-carboxamide]
18 | 450 | 3.3 | Cc1cc(Cl)cc(C)c1Oc1ncc(C(C)(O)CF)cc1-c1cn(C)c(=O)c2[nH]c(C(=O)NC(C)(C)C)cc12 (stereo not drawn) [Example 103, N-tert-butyl-4-[2-(4-chloro-2,6-dimethylphenoxy)-5-(1-fluoro-2-hydroxypropan-2-yl)pyridin-3-yl]-6-methyl-7-oxo-6,7-dihydro-1H-pyrrolo[2,3-c]pyridine-2-carboxamide]
